Assay results as given in PubChem BioAssay (NCI).
Several values for one entry are separate records, joined by “and”; a condition that tells them apart may be missing. Equal entries are not always repeated.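 These data come from cells grown in 96-well plates and exposed to compound for 48 hours at five concentrations. The concentration for 50% growth inhibition is given as GI50. TGI denotes the concentration required for complete inhibition of growth.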

Key:
Assay in all cases: growth of human tumour cells (NCI), 48 h
UACC-257 melanoma = test system: UACC-257 melanoma
IGROV1 ovarian = test system: IGROV1 ovarian
SW-620 colon = test system: SW-620 colon
SK-MEL-2 melanoma = test system: SK-MEL-2 melanoma
K-562 leukemia = test system: K-562 leukemia
SF-295 CNS = test system: SF-295 CNS
SK-MEL-28 melanoma = test system: SK-MEL-28 melanoma
ACHN renal = test system: ACHN renal
OVCAR-3 ovarian = test system: OVCAR-3 ovarian
HCT-116 colon = test system: HCT-116 colon

| SMILES | GI50 (UACC-257 melanoma) [µM] | TGI (UACC-257 melanoma) | GI50 (IGROV1 ovarian) [µM] | TGI (IGROV1 ovarian) | GI50 (SW-620 colon) [µM] | TGI (SW-620 colon) | TGI (SK-MEL-2 melanoma) | GI50 (K-562 leukemia) [µM] | TGI (K-562 leukemia) | GI50 (SF-295 CNS) [µM] | TGI (SF-295 CNS) | TGI (SK-MEL-28 melanoma) | GI50 (ACHN renal) [µM] | TGI (ACHN renal) | GI50 (OVCAR-3 ovarian) [µM] | GI50 (HCT-116 colon) [µM] | TGI (HCT-116 colon) | TGI (OVCAR-3 ovarian) | GI50 (SK-MEL-2 melanoma) [µM] | GI50 (SK-MEL-28 melanoma) [µM] |
| --- | --- | --- | --- | --- | --- | --- | --- | --- | --- | --- | --- | --- | --- | --- | --- | --- | --- | --- | --- | --- |
| C/C(=N\NC(=S)N1CCC1)c1ccccn1 | 0.00326 | 1.42 µM | 0.00798 | 22.7 µM | 0.0367 | > 100 µM | 33.3 µM | 0.00393 | > 100 µM | 0.0285 | 49.2 µM | > 56 µM | 0.00656 | 34.6 µM | 0.00157 | 0.00278 | 52.2 µM |  |  |  |
| CN1CCCc2nc3ccccc3n2C1 |  | > 100 µM |  | > 100 µM |  | > 100 µM | > 100 µM |  | > 100 µM |  | > 100 µM | > 100 µM |  | > 100 µM |  |  | > 100 µM | > 100 µM |  |  |
| O=C(Nc1ccccc1C(=O)NC(=O)c1ccccc1NC(=O)c1ccccc1)c1ccccc1 |  | 4.94 µM |  | 5.93 µM |  | 18.6 µM | 3.93 µM |  | 18.3 µM |  | 26.6 µM | 10.6 µM |  | 36.3 µM |  |  | 13.5 µM | 13.4 µM |  |  |
| CCCCCCCCCCCCCC(=O)O[C@H]1CC[C@H](NC(=O)[C@H](OC)[C@H](O)[C@@H](O)[C@H](O)/C=C/C(C)C)C(=O)N(C)C1 | 0.00238 | 15 µM and 13 µM | 0.00377 | 15 µM and > 23.8 µM | 0.00238 | 15 µM and 5.48 µM | 15 µM and 6.33 µM | 0.00238 | 15 µM and > 23.8 µM | 0.00238 | 15 µM and 3.03 µM | 15 µM and 3.57 µM | 0.0306 | 15 µM and > 23.8 µM | 0.0139 |  | 15 µM and 2.46 µM | 15 µM and > 23.8 µM | 0.0156 | 0.00238 |
| CCCCCCCCCC1CC(=O)OC23CCCC(=O)C12O3 (stereo unspecified) |  | > 100 µM |  | > 100 µM |  | > 100 µM | > 100 µM |  | > 100 µM |  | > 100 µM | > 100 µM |  | > 100 µM |  |  | > 100 µM | > 100 µM |  |  |
| COc1cc([C@@H]2c3cc4c(cc3[C@H](SC(=N)N)[C@H]3COC(=O)[C@H]23)OCO4)cc(OC)c1OC | 15.1 | > 100 µM | 0.227 | 4.66 µM | 0.265 | > 100 µM | > 100 µM | 0.14 | > 100 µM | 0.0369 | 0.19 µM | > 100 µM | 0.41 | > 84.2 µM | 0.0767 | 0.197 | > 100 µM | 0.35 µM | 5.78 | 14.4 |
| Cc1nc2ccncc2[nH]1 |  | > 100 µM |  | > 100 µM |  | > 100 µM | > 100 µM |  | > 100 µM |  | > 100 µM | > 100 µM |  | > 100 µM |  |  | > 100 µM | > 100 µM |  |  |
| S=C(Sc1ccc(Cl)cc1)Sc1ccc(Cl)cc1 | 5.04 | 16.6 µM | 1.81 | 3.47 µM | 1.62 | 3.01 µM | 16.7 µM | 1.87 | 7.63 µM | 1.01 | 6.58 µM | 3.49 µM | 3.23 | 11 µM | 1.74 | 1.82 | 3.53 µM | 3.12 µM | 4.61 | 1.89 |
| C#COc1cccc(Nc2ncnc3cc(NC(=O)[C@@H](C)Cl)ccc23)c1 | > 62.5 | > 62.5 µM | 5.29 | > 62.5 µM | 3.95 | > 62.5 µM | > 62.5 µM | 2.56 | > 62.5 µM | 8.22 | 61.2 µM | > 62.5 µM | 18.9 | > 62.5 µM | 2.68 | 2.98 | > 62.5 µM | > 62.5 µM | 5.24 | 14 |
| O=C1C=CC2(CCC23C=CC(=O)O3)O1 (stereo unspecified) |  | > 100 µM |  | > 100 µM |  | > 100 µM | > 100 µM |  | > 100 µM |  | > 100 µM | > 100 µM |  | > 100 µM |  |  | > 100 µM | > 100 µM |  |  |
| CN(C)CCCOc1ccc(NC2=C(Cl)C(=O)C(Nc3ccc(OCCCN(C)C)cc3)=C(Cl)C2=O)cc1 | 0.793 | 2.29 µM | 0.544 | 1.11 µM | 0.297 | 0.809 µM | 3.31 µM | 0.276 | 0.798 µM | 1.67 | 3.19 µM | 3.16 µM | 1.66 | 3.02 µM | 0.187 | 0.183 | 0.368 µM | 0.353 µM | 1.66 | 1.74 |
| OCC1OC(OC2(CO)OC(CO)C(O)C2O)C(O)C(O)C1O (stereo unspecified) | > 100 | > 100 µM | > 100 | > 100 µM | > 100 | > 100 µM | > 100 µM | > 100 | > 100 µM | > 100 | > 100 µM | > 100 µM | > 100 | > 100 µM | > 100 | > 100 | > 100 µM | > 100 µM | > 100 | > 100 |
| Nc1ncnc2c1c(-c1ccc(Oc3ccccc3)cc1)nn2CC1SSCC1O (stereo unspecified) | 2.07 | 10.6 µM | 2.44 | 8.31 µM | 1.58 | 32.5 µM | 2.15 µM | 0.788 | 7.39 µM | 6.36 | 15.8 µM | 0.92 µM | 4.27 | 14.9 µM | 0.659 | 0.59 | 4.65 µM | 1.62 µM | 0.825 | 0.131 |
| CC(=O)Nc1cccc(C#Cc2cncnc2Nc2ccc(OCc3cccc(F)c3)c(Cl)c2)c1 | 13.7 | > 25 µM | 4.49 | > 25 µM | 17.9 | > 25 µM | > 22.8 µM | 8.96 | > 25 µM | 6.47 | > 25 µM | > 25 µM | 6.09 | > 25 µM | 7.53 | 9.1 | > 25 µM | > 25 µM | 6.43 | 17.1 |
| OC1=CN=C(c2ccccc2)Oc2ccccc21 |  | > 100 µM |  | > 100 µM |  | > 100 µM | > 100 µM |  | > 100 µM |  | > 100 µM | > 100 µM |  | > 100 µM |  |  | > 100 µM | > 100 µM |  |  |
| Nc1nc(-c2ccccc2)c(CC(=O)O)s1 |  | > 100 µM |  | > 100 µM |  | > 100 µM | > 100 µM |  | > 100 µM |  | > 100 µM | > 100 µM |  | > 100 µM |  |  | > 100 µM | > 100 µM |  |  |
